Tests used:
[1] = system: NRF2; assay: NRF2 induction, luciferase activity in AREc32 cells; type: cell-based; settings: concentration that doubles the activation of NRF2, read-out: NRF2 CD
Description: Screening of NRF2 induction was quantified by luciferase activity in AREc32 cells as described in [Herrera-Arozamena, Clara et al. "Tuning melatonin receptor subtype selectivity in oxadiazolone-based analogues: Discovery of QR2 ligands and NRF2 activators with neurogenic properties." European journal of medicinal chemistry vol. 190 (2020): 112090. doi:10.1016/j.ejmech.2020.112090].
(§1) Based on the results obtained (Table 2), Compound 1 was selected for further in vitro and in vivo studies as it was endowed with the best anti-neuroinflammatory activity. Table 2: Comparative in vitro results. Cell viability/toxicity: effect of the compound per se on cell viability of […] cells measured with the MTT method. Anti-neuroinflammatory effect: % Reduction of nitrites in primary rat glial cultures. PAMPA-BBB: In vitro blood-brain barrier permeation assay, permeation rate Pe (10-6 cm.s-1). NRF2, CD (µM): Concentration of compound that doubles de activation of NRF2. ORAC: Oxygen radical absorbance capacity. LOX-5: lipoxygenase-5.

[2] = system: primary rat glial cultures; assay: Anti-neuroinflammatory screening in LPS-treated primary glial cultures (Griess, normalized by MTT); type: cell-based; settings: % reduction of nitrites, LPS alone = 100 % inflammation, read-out: Anti-neuro inflammatory effect at 3 µM (%)
Experimental: Screening for anti-inflammatory properties in primary rat glial cultures was performed according to the protocol described previously [Gameiro, Isabel et al. "Discovery of the first dual GSK3β inhibitor/Nrf2 inducer. A new multitarget therapeutic strategy for Alzheimer's disease." Scientific reports vol. 7 45701. 31 Mar. 2017, doi:10.1038/srep45701]. All compounds were evaluated at the single concentration of 3 µM. Neuroinflammation was quantified as the value of released […], measured by the Griess method, normalized by the number of viable cells measured by the MTT method [Mosmann, T. "Rapid colorimetric assay for cellular growth and survival: application to proliferation and cytotoxicity assays." Journal of immunological methods vol. 65, 1-2 (1983): 55-63. doi:10.1016/0022-1759(83)90303-4]. LPS alone was considered 100 % inflammation.
as §1

[3] = Oxygen Radical Absorbance Capacity Assay (ORAC); type: physicochemical; settings: ORAC > 1.0 is a better ROS scavenger than trolox
Experimental: The Oxygen Radical Absorbance Capacity Assay (ORAC) was performed as described [Herrera-Arozamena, Clara et al. "Resveratrol-Based MTDLs to Stimulate Defensive and Regenerative Pathways and Block Early Events in Neurodegenerative Cascades." Journal of medicinal chemistry vol. 65,6 (2022): 4727-4751. doi:10.1021/acs.jmedchem.1c01883].

[4] = system: hyperphosphorylated tau; assay: In vivo hTauP301L model: western blot of sarkosyl soluble and insoluble hyperphosphorylated tau; set-up: species or system mouse; settings: adult mice; 50 mg/kg/day oral, 35 days; sarkosyl insoluble fraction
Experimental: In vivo hTau301L model was induced by stereotaxic injection of AAV-hTauP301L (AAV-hTau) particles as described in [Luengo, Enrique et al. "Implication of type 4 NADPH oxidase (NOX4) in tauopathy." Redox biology vol. 49 (2022): 102210. doi:10.1016/j.redox.2021.102210 ]. Control animals were injected with AAV-GFP. Evaluation of hyperphosphorylated tau in sarkosyl soluble and insoluble fractions; microgliosis; AT8 and AT180 by immunofluorescence; and cognitive test were performed as described previously [Luengo, Enrique et al. "Implication of type 4 NADPH oxidase (NOX4) in tauopathy." Redox biology vol. 49 (2022): 102210. doi:10.1016/j.redox.2021.102210 ].
Oral administration of Compound 1 at different dosages (20 mg·kg^-1 and 50 mg·kg^-1) was administered embedded in gelatine. The compound was given in a mixture of 10 % gelatine from porcine skin and 10 % sucralose in water, heated in a microwave oven. Before Compound 1 addition, gelatine mixture was left at RT. Afterwards, the compound was added, evenly mixed and plated 1 mL·well^-1 in a P24 plate. […]
Example 2.5. […] After 35 days treatment, hyperphosphorylated tau levels were evaluated by immunofluorescence and by WB in soluble and insoluble in sarkosyl fractions. […]
After 35 days of treatment, monomeric and oligomeric forms of tau, soluble and insoluble in sarkosyl, were analysed by western blot. […]

[5] = system: Iba-1; assay: LPS in vivo model: brain microgliosis by Iba-1 immunofluorescence; set-up: species or system mouse; settings: 20 mg·kg^-1 i.p.; 4 and 24 h after LPS
Experimental: Immunofluorescence labelling in in vitro and in vivo samples was performed as described in [Luengo, Enrique et al. "Implication of type 4 NADPH oxidase (NOX4) in tauopathy." Redox biology vol. 49 (2022): 102210. doi:10.1016/j.redox.2021.102210 ].
Example 2.3.1. Treatment with Compound 1 reduces LPS-induced cytokine expression and release in mouse brain. Mice were treated i.p. with a daily dose of 20 mg·kg^-1 of Compound 1 for 4 consecutive days. On the last day, LPS (0.5 mg·kg^-1) was injected i.p. one h after the compound. Thereafter, behavioural, and biochemical outcomes were analysed at different time points.
Example 2.3.2. Treatment with Compound 1 reduces LPS-induced microgliosis in mouse brain. Microglial cells constitute the immune cells of our brain; therefore, they play a key role in regulating neuroinflammation. Microgliosis was evaluated using Iba-1 as a microglial marker in immunofluorescence experiments 4 h and 24 h after the inflammatory stimuli (LPS).

COc1ccc2c(c1)CC(c1c[nH]c3ccc(OC)cc13)N2 (stereo not drawn) [Compound 1, 5-Methoxy-3-(5-methoxyindolin-2-yl)-1H-indole]
EC (2-fold activation) [1]: 0.56 ± 0.05 µM | inhibition at 3 µM [2]: 100 ± 6.6% | ORAC (trolox equiv.) [3]: 2.3 ± 0.3 trolox equiv. | insoluble monomers of AT180 [4]: significant reduction | insoluble oligomers of AT180 [4]: tendency to reduce | mean fluorescence intensity of Iba-1 per cell [5]: restored to saline levels

Reference: EP4467137A1, “TREATMENT OF FRONTOTEMPORAL DEMENTIA OR FRONTOTEMPORAL LOBAR DEMENTIA” (Universidad Autónoma de Madrid, priority 2023, dated 2024)
